From paper PMC6614494, “Molecular and Biochemical Characterization of a Bimodular Xylanase From Marinifilaceae Bacterium Strain SPP2” (Frontiers in Microbiology, 2019)

Target: T1, XynSPP2 (Labilibaculum antarcticum, UniProt A0A1Y1CHM8)
T1 construct: gene ALGA_1465; residues 25-450, signal peptide (24 residues) removed, Fn3 + GH10 domains; 34-residue N-terminal pET-28a tag kept; E. coli BL21(DE3)
Assay: TLC of hydrolysis products
Format: biochemical
Conditions: 20 uM substrate, citrate-phosphate pH 6.5

T1 sequence (A0A1Y1CHM8 entry or part of it): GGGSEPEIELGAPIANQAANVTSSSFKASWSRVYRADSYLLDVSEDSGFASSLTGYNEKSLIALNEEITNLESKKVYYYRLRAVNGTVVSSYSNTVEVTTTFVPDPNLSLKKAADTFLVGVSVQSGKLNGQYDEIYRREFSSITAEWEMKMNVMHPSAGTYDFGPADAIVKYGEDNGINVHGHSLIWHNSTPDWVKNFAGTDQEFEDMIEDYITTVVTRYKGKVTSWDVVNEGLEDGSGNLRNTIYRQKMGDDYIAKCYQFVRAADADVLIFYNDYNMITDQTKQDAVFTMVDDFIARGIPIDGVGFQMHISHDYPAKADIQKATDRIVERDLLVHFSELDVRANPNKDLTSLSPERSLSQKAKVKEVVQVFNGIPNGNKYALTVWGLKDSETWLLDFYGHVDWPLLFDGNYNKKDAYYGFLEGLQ

Row | Compound | TLC of hydrolysis products
1 | OC1OC[C@@H](O[C@@H]2OC[C@@H](O[C@@H]3OC[C@@H](O[C@@H]4OC[C@@H](O)[C@H](O)[C@H]4O)[C@H](O)[C@H]3O)[C@H](O)[C@H]2O)[C@H](O)[C@H]1O (some centres unmarked) [X4, xylotetraose] | XynSPP2 hydrolyzed xylotetraose to xylotriose (major) and xylobiose
2 | OC1OC[C@@H](O[C@@H]2OC[C@@H](O[C@@H]3OC[C@@H](O[C@@H]4OC[C@@H](O[C@@H]5OC[C@@H](O)[C@H](O)[C@H]5O)[C@H](O)[C@H]4O)[C@H](O)[C@H]3O)[C@H](O)[C@H]2O)[C@H](O)[C@H]1O (some centres unmarked) [X5, xylopentaose] | Degradations of xylopentaose and xylohexaose by XynSPP2 were largely similar
